Like-named read-outs stand apart in the source and are kept apart here.
Assay: Pharmacokinetics (PK) study, plasma exposure of PBA after oral dosing of PBA analogues
Type: in vivo, SD rats
Procedure: Pharmacokinetics (PK) study was carried out to evaluate the plasma exposure of two PBA analogues (ATX-2022-018 and ATX-2022-034), when dosed orally (PO) at 22.5 mg/kg in 50% Propylene glycol. Dosing was done in overnight fasted SD rats (n=6). After oral (PO) administration blood was collected by serial bleeding at 8 different time points in heparinized tubes. Blood samples were centrifuged at 10,000 rpm for 5 min. at 4° C. to obtain the plasma, which were aspirated into separate labeled tubes and stored at −80° C. Extraction solvent was added to plasma (150 μL 0.1% acetic acid in water: 0.1% acetic acid Methanol, 20:80) was vortexed and shaken on shaker for 10 minutes, centrifuged at 10,000 rpm for 10 minutes at 4° C. Supernatant was used for LC-MS analysis. Parent drug generated that is PBA was monitored by LC-MS (API3200).
Details of the LC column and mobile phase used for the analysis is provided below: • Column: Gemini NX C18, 50 mm*4.6 mm*3.5μ • Mobile Phase: A: 0.1% Acetic in Water • B: 0.1% Acetic acid in Methanol • Flow rate: 0.600 mL/min, gradient program
Acetonitrile and plasma calibration curves were generated and percentage of drug recovery from plasma determined. Quantitative analysis was done by liquid chromatography tandem mass spectrometer (API3200 LC-MS/MS). Cmax, Tmax, AUC and t½ were calculated using Graph Pad PRISM version 5.04.

[1] = SD, rat, in vivo, po, 22.5 mg/kg
[2] = PBA monitored in plasma by LC-MS, overnight fasted SD rats, PO 22.5 mg/kg in 50% Propylene glycol

| AUC [1] | CHANGE of AUC (Increase) [1] | CHANGE of CL (Decrease) [1] | CHANGE of Cmax (Increase) [1] | CHANGE of MRT (Increase) [1] | CHANGE of Vd (Decrease) [1] | CL [1] | Cmax [1] | MRT [1] | Tmax [1] | Vd [1] | Structure (SMILES) | AUC [2] | CL [2] | MRT [2] | Tmax [2] | Vd [2] | Cmax (PBA monitored in plasma by LC-MS, overnight fasted SD rats, PO 22.5 mg/kg in 50% Propylene glycol, read-out: Cmax) |
| --- | --- | --- | --- | --- | --- | --- | --- | --- | --- | --- | --- | --- | --- | --- | --- | --- | --- |
| 104,814 nM · h | Increase 3-fold | Decrease 2.7-fold | Increase 4-fold | Increase 1.5-fold | Decrease 2.75-fold | 225 mL/h | 51.3 µM | 36 min | 12 min | 2,600 ml | O=C(CCCc1ccccc1)OC[C@H](OC(=O)CCCc1ccccc1)[C@@H](COC(=O)CCCc1ccccc1)OC(=O)CCCc1ccccc1 [ERYTHRITOL ANALOG OF PBA, (2R,3S)-butane-1,2,3,4-tetrayl tetrakis(4-phenylbutanoate)] | – | – | – | – | – | – |
| – | – | – | – | – | – | – | – | – | – | – | O=C(CCCc1ccccc1)OC[C@H](OC(=O)CCCc1ccccc1)[C@H](COC(=O)CCCc1ccccc1)OC(=O)CCCc1ccccc1 [THREITOL ANALOG OF PBA, (2S,3S)-butane-1,2,3,4-tetrayl-tetrakis(4-phenylbutanoate), reference compound] | 37,594 nM · h | 600 mL/h | 24 min | 18 min | 7,161 ml | 12.5 µM |

— patent US20250382255A1, “ERYTHRITOL ESTER OF PHENYL BUTYRIC ACID” (AAYAM THERAPEUTICS LLC, priority 2022, published 2025)
